Experimental data as given in patent publication US9458187B2, “Methods for treatment of inflammatory conditions using S-[4-(3-fleuro-3-methylbutyryloxy)but-2-ynyl]6α, 9α-difluoro-17α-(furan-2-yl) carbonyloxy-11β-hydroxy-16α-methyl-3-oxoandrosta-1,4-diene-17β-carbothioate” (Sun Pharma Advanced Research Company Limited, priority 2013, dated 2016).
Blank lines part the entries; values can stand above or below the compound they belong to.

Legend:
[1] = system: liver glycogen deposition; experiment: Liver glycogen deposition; format: in vivo, Male Sprague Dawley rats; conditions: 3 mg/kg intratracheal, 2 doses 24 hrs apart, adrenalectomized rats
[2] = Sephadex-induced lung edema; format: in vivo, SD rats; conditions: Sprague-Dawley, rat, thymus, other: intratracheal; i.t., 24 hrs and 2 hrs prior to Sephadex; read-out: ED50 Thymus involution
Description: (§1) Sephadex® G-200 was prepared in sterile saline (10 mg/ml) and allowed to swell for at least 3 days at room temperature. Test compounds were administered intratracheally at 24 hrs and 2 hrs prior to intratracheal administration of Sephadex® (5 mg/kg) under light ether anesthesia. Vehicle control animals were administered vehicle instead of Sephadex®. At 24 hr after Sephadex® instillation, lung and thymus were excised from individual animals and weighed. Wet weights of lungs and thymus were corrected for 100 g of initial body weight. The percentage increase in lung weight caused by Sephadex® and its inhibitions by the compounds, were calculated. The percentage inhibitions of thymus compared to vehicle control group were also calculated

[3] = system: liver glycogen deposition; experiment: Liver glycogen deposition; format: in vivo, Male Sprague Dawley rats; conditions: 3 mg/kg intratracheal, 2 doses 24 hrs apart, adrenalectomized rats; remark: listed apart in the source
Description: Male Sprague Dawley rats, weighing 190-220 g were bilaterally adrenalectomized and maintained on 0.9% saline solution throughout the experiment. On day 5th and 6th of adrenalectomy, animals were made into different groups, test compounds prepared in cold saline (sonicated for 30 min) were instilled intratracheally 2 doses @3 mg/kg, 24 hrs apart. At 15 hrs after the last treatment, animals were sacrificed and livers were excised and weighed. The glycogen content of the livers was determined by anthrone method. Briefly, a weighed quantity of liver tissue was homogenized with 5% trichloroacetic acid, supernatant mixed with ethanol and kept overnight for precipitation. The glycogen thus extracted was estimated as glucose generated after acid hydrolysis by addition of anthrone reagent at 620 nm. Glycogen content was expressed as mg/100 g liver.

[4] = system: cotton pellet granuloma; experiment: Cotton pellet granuloma test; format: in vivo, SD rats; conditions: 100 mcg/pellet
Description: SD rats were used for assessing anti-inflammatory activity of test compound using cotton pellet granuloma method. Sterilized cotton pellets weighing 20 mg were prepared. Test compounds were dissolved in acetone so as to get the required quantity for each cotton pellet in 500 μl. Different pellets were impregnated with 500 μl of acetone to contain required quantity of test compounds and allowed to dry. Vehicle control pellets were impregnated with 500 μl acetone.
Rats were made into different groups. Two cotton pellets were surgically implanted into the scapular region of each rat. On sixth day of such implantation, pellets along with granuloma were taken out. Thymus gland was also separated from each animal and weighed. The pellets with granuloma were dried for 20 hrs at 60° C. and weighed. Mean weights of dry granuloma and thymus, body weight gain/100 g body weights were calculated.

[5] = system: Sephadex-induced lung edema; experiment: Sephadex-induced lung edema; format: in vivo, SD rats; conditions: Rattus norvegicus; i.t., 24 hrs and 2 hrs prior to Sephadex; read-out: ED50 Lung edema inhibition
Description: as §1

[6] = system: croton oil ear edema; experiment: Croton oil ear edema; format: in vivo, Mice (male, CD-1); conditions: for Inhibition of ear edema (%): 1.6 μg, applied to ear 2 hrs before croton oil
Description: Mice (male, CD-1) were made into different groups. A method similar to one reported in the literature was used. Test compounds were dissolved in pyridine-water-acetone (4:2:14) solution 10 μl of this solution of compound or vehicle solution was applied to the left ear of the mice. The right ear of each mouse was applied simultaneously with 10 μl of pyridine: water: acetone (4:2:14) solution. After 2 hrs of compound or vehicle application, 10 μl of croton oil solution was applied to the left ear of all animals. After 6 hr of croton oil treatment the animals were sacrificed; ears were excised and weighed separately.

[7] = system: ovalbumin-induced increase in intranasal pressure; experiment: Ovalbumin-induced increase in intranasal pressure; format: in vivo, guinea pigs; conditions: intranasal instillation 24 hr and 2 hr prior to ovalbumin challenge; FIG. 2
Description: Animals sensitized with ovalbumin as described above were used for experiments determining intranasal pressure. Intranasal instillation of compound of formula I, fluticasone propionate or placebo was done 24 hr and 2 hr prior to challenge with ovalbumin. The nasopharynx was catheterized with a PE cannula, one end of which was attached to pressure transducer and other to the nebulizer. Ovalbumin (5%) was nebulized into the nasal cavity for 10 min. The changes in intranasal pressure were recorded for following 45 min and differential pressure (dP) was calculated.

[8] = system: skin atrophy and systemic side effects; experiment: Skin atrophy and systemic side effects on topical application; format: in vivo, Male SD rats; conditions: dermal, daily 14 days
From the text: Male SD rats were lightly anesthetized with isoflurane. Bilaterally paired sites were marked on the back, one on each side of the flank. One of the sites was applied with an appropriate dose of compound of the present invention and fluticasone propionate dissolved in the acetone, daily for a period of 14 days. Contralateral site served as solvent treated controls and received acetone. Body weights were monitored on 0-14 days. On day 15, twenty-four hours after the last applications, blood was collected from the tail vein to determine total and differential blood cell count. The animals were euthanized and full-thickness skin from shaved area was punched to get 15 mm diameter plugs. The subcutaneous fat and muscle was removed and the punched plug was weighed. Thymus weights of each animal were also determined as a marker of systemic corticosteroid activity

[9] = target: T1, Human Glucocorticoid receptor (Homo sapiens, UniProt P04150); experiment: Human glucocorticoid receptor binding (in vitro), [3H]dexamethasone radioligand; conditions: at 0.1 μM
T1 construct: expressed in transfected cells; host or cells: human HeLa cells
T1 sequence (P04150 1-777): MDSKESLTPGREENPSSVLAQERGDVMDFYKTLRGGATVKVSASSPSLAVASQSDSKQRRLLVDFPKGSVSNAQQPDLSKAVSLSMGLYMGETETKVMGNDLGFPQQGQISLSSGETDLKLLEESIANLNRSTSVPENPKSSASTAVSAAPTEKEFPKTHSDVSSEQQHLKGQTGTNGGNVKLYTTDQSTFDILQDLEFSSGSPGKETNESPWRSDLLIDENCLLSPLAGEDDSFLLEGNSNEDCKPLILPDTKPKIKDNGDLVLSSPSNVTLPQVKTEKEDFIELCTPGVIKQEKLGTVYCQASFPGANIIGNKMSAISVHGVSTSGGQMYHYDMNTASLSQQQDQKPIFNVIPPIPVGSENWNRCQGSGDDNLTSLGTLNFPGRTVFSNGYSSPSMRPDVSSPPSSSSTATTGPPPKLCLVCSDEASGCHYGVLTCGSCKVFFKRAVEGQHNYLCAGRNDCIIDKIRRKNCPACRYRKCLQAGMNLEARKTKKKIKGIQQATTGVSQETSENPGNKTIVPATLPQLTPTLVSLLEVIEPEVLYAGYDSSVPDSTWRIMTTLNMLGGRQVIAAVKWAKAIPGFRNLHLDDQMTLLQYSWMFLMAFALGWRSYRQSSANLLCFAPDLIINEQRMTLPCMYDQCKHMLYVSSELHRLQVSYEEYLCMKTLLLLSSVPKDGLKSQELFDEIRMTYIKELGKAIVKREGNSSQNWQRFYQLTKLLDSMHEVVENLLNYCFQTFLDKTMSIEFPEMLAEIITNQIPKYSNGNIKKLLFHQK
Description: The activity of test compounds on glucocorticoid receptor was assessed using radioligand binding assays.
The % inhibition was evaluated using a single concentration of test compound and the corresponding radiolabeled ligand. Results are presented as the percent inhibition of specific binding. The values are average of duplicate determinations for each concentration.

% Inhibition of thymus [1]: 65.02%
ED50 at 24 h [2]: 0.68 mg/kg
Glycogen content [3]: 552.77 mg/100 g liver
Compound: CCCC1O[C@@H]2C[C@H]3[C@@H]4CCC5=CC(=O)C=C[C@]5(C)[C@H]4[C@@H](O)C[C@]3(C)[C@]2(C(=O)CO)O1 (stereo partly shown) [Budesonide]

% Inhibition of thymus [1]: 61.34%
Thymus wt. (% Decrease) B [4]: 15.16%
ED50 at 24 h [2]: 3.13 mg/kg
Glycogen content [3]: 263.96 mg/100 g liver
Compound: CC(C)C(=O)OCC(=O)[C@@]12O[C@H](C3CCCCC3)O[C@@H]1C[C@H]1[C@@H]3CCC4=CC(=O)C=C[C@]4(C)[C@H]3[C@@H](O)C[C@@]12C [Ciclesonide]
Mean % Inhibition of Granuloma A [4]: 63.38%
ED50 [5]: 0.388 mg/kg

Compound: C[C@@H]1C[C@H]2[C@@H]3CCC4=CC(=O)C=C[C@]4(C)[C@@]3(F)[C@@H](O)C[C@]2(C)[C@@]1(O)C(=O)CO [Dexamethasone]
Inhibition of ear edema (%) [6]: 50.05%

% Inhibition of thymus [1]: 70.17%
Thymus wt. (% Decrease) B [4]: 73.56%
ED50 at 24 h [2]: 0.36 mg/kg
Glycogen content [3]: 1514.65 mg/100 g liver
Compound: CCC(=O)O[C@]1(C(=O)SCF)[C@H](C)C[C@H]2[C@@H]3C[C@H](F)C4=CC(=O)C=C[C@]4(C)[C@@]3(F)[C@@H](O)C[C@@]21C [Fluticasone propionate]
inhibition of intranasal pressure [7]: equivalent inhibition
Mean % Inhibition of Granuloma A [4]: 66.04%
% Body Weight Gain ([8]; 6 μg/site): 68.1%
% Inhibition Lymphocytes ([8]; 6 μg/site): 31.7%
% Inhibition Neutrophils ([8]; 6 μg/site): 25.8%
% Inhibition Skin weight ([8]; 6 μg/site): 25.3%
% Inhibition Thymus ([8]; 6 μg/site): 2.0%
% Inhibition Total leukocyt ([8]; 6 μg/site): 31.4%
% Body Weight Gain ([8]; 18 μg/site): 67.4%
% Inhibition Lymphocytes ([8]; 18 μg/site): 15.9%
% Inhibition Neutrophils ([8]; 18 μg/site): 24.5%
% Inhibition Skin weight ([8]; 18 μg/site): 20.8%
% Inhibition Thymus ([8]; 18 μg/site): 5.4%
% Inhibition Total leukocyt ([8]; 18 μg/site): 17.5%
% Body Weight Gain ([8]; 60 μg/site): 61.9%
% Inhibition Lymphocytes ([8]; 60 μg/site): 15.6%
% Inhibition Neutrophils ([8]; 60 μg/site): 14.5%
% Inhibition Skin weight ([8]; 60 μg/site): 27.9%
% Inhibition Thymus ([8]; 60 μg/site): 23.0%
% Inhibition Total leukocyt ([8]; 60 μg/site): 15.2%
% Body Weight Gain ([8]; 180 μg/site): 42.5%
% Inhibition Lymphocytes ([8]; 180 μg/site): 34.1%
% Inhibition Neutrophils ([8]; 180 μg/site): 24.6%
% Inhibition Skin weight ([8]; 180 μg/site): 30.0%
% Inhibition Thymus ([8]; 180 μg/site): 55.0%
% Inhibition Total leukocyt ([8]; 180 μg/site): 32.7%
ED50 [5]: 0.086 mg/kg
Inhibition of ear edema (%) [6]: 81.09%

% Inhibition of thymus [1]: 43.51%
Glycogen content [3]: 1117.32 mg/100 g liver
Compound: C[C@@H]1C[C@H]2[C@@H]3CCC4=CC(=O)C=C[C@]4(C)[C@@]3(Cl)[C@@H](O)C[C@]2(C)[C@@]1(OC(=O)c1ccco1)C(=O)CCl [Mometasone furoate]

Compound: C[C@@H]1CC2C3C[C@H](F)C4=CC(=O)C=C[C@]4(C)[C@@]3(F)[C@@H](O)C[C@]2(C)[C@@]1(OC(=O)c1ccco1)C(=O)SCC#CCO (stereo partly drawn) [formula II, S-(4-Hydroxy-but-2-ynyl)6α,9α-difluoro-17α-(furan-2-yl)carbonyloxy-11β-hydroxy-16α-methyl-3-oxoandrosta-1,4-diene-17β-carbothioate]
potency in topical in vivo anti-inflammatory models such as croton oil ear edema ([6]; compared with compound of the present invention): significantly less potent

Compound: C[C@@H]1CC2C3C[C@H](F)C4=CC(=O)C=C[C@]4(C)[C@@]3(F)[C@@H](O)C[C@]2(C)[C@@]1(OC(=O)c1ccco1)C(=O)O (stereo partly shown) [formula III]
inhibition at 0.1 µM [9]: 2%
